Patent US20060025446A1, “Propargyl nitroxides and indanyl nitroxides and their use for the treatment of neurologic diseases and disorders” (priority 2004, published 2006)
Counter-ions that a name gives are not always drawn.

How the values were obtained:
Human Red Blood Cells = test: Hypochlorite (HOCl) hemolysis of human red blood cells model; type: cell-based; conditions: antioxidant activity; compounds dissolved at 5 mg/ml, aliquots tested
Description: Hypochlorite (HOCl) Hemolysis of Human Red Blood Cells Model
The reaction is based on the ability of oxygen radicals to lyse red blood cells. Antioxidant compounds such as ascorbic acid and 4-hydroxy-TEMPO (TEMPOL) prevent membrane damage in a dose dependent manner. All compounds were dissolved at a concentration of 5 mg/ml and aliquots were tested for their ability to prevent lysis.

[1] = Chemiluminescence model (without cells): Luminol, SIN-1, selenite, BSA; type: biochemical; conditions: antioxidant activity
Source text: Chemiluminescence Model (Without Cells)
Luminescence was generated in vials containing the following compounds: Luminol, SIN-1 (a generator of NO radicals), selenite, BSA. This reaction is inhibited by scavengers of peroxynitirites as well as scavengers of NO and other oxygen free radicals.

Neutrophils = test: PMA-induced oxidative burst in neutrophils model (DCFH, FACS); type: cell-based; conditions: PMA 10 ng/ml for 30 minutes
Description: PMA-Induced Oxidative Burst in Neutrophils Model
The cells were activated with PMA (10 ng/ml) for 30 minutes and incubated with 2,7-dichlorodihydrofluorescin diacetate (DCFH), which is converted to a fluorescent compound in the presence of oxygen radicals and peroxynitrites. The fluorescent cells were detected in a cell sorter (FACS).

[2] = tested on: NGF-Differentiated PC12 Cells; test: MPP+ Parkinson neurotoxicity/neuroprotection model, LDH release; type: cell-based; conditions: MPP+ 1000 μM, 48-52 hr
Description: The Parkinson Neurotoxicity Model of 1-methyl-4-phenyl piridinium (MPP+ Iodine Salt, 1000 μM for 48-52 hr), Using 7-10 Days NGF-Differentiated PC12 Cells.
The slow developing cell death in this model is believed to be a result of inhibition of mitochondrial complex I and generation of oxygen and nitrogen radicals. Therefore the antioxidant tempol (4-HYDROXY-TEMPO) was used as a positive standard in the screening experiments with the compounds. The following detailed protocol was employed for testing.
MPP+—Neurotoxicity/Neuroprotection Protocol:
• 1. PC12 cells (2×10^5 cells) were seeded on NUNC 6-well dishes coated with 200 μg/ml collagen (rat tail type I) and grown in DMEM medium containing 7% Fetal Calf Serum, 7% Horse Serum and […] Penicilin and 100 ug/ml Streptomycin. • 2. Differentiation of the cells for 7-10 days was achieved by treatment with mouse β-NGF (β-nerve growth factor) (50 ng/ml) added freshly every 2-3 days to the culture medium. • 3. Cultures were progressively evaluated for the differentiation response expressed by elongation of neurites, increased percentage of responsive cells, and other morphological parameters. • 4. At the day of the experiment, the medium of the differentiated cultures was replaced to fresh medium containing NGF (50 ng/ml). • 5. […] LDH (lactic dehydrogenase) release to the medium (neurotoxicity) was measured after 48-52 hr after the addition of MPP+, using an ELISA reader. […]
Neurotoxicity is defined as the percentage of LDH released to the medium at the end of the experiment calculated according to the following formula: {LDH(MPP)−LDH(control)}/{LDH(total)−LDH(control)}×100=Neurotoxicity (% of total cell death) • LDH(MPP): LDH release at the end of MPP+ insult • LDH(control): LDH release at the end of experiment from untreated cultures • LDH(total): LDH released from the cultures upon freezing at −80° C. and thawing at room temperature (release of total/maximal LDH present in the culture) […]

[3] = tested on: EAE using MOG (Myelin Oligodendrocyte Glycoprotein); test: MOG induced EAE in mice; type: in vivo, Female C57B1/6 mice
[4] = tested on: Experimental Allergic Encephalomyelitis (EAE) using PLP 139-151; test: PLP induced EAE in mice; type: in vivo, Female SJL mice; conditions: 50 mg/kg/day orally by gavage, day 1 to day 20; for Incid.: sick animals/animals in group
Description: Induction of Experimental Allergic Encephalomyelitis (EAE) Using PLP
Female SJL mice (12 weeks old) were inoculated with the encephalitogienic peptide of proteolipid protein (PLP 139-151) synthesized to a purity of 70% by Sigma (Israel). 150 μg of the peptide were emulsified in complete Freund's adjuvant (CFA) (Difco Laboratories), supplemented with killed mycobacteria (5 mg/ml) and pertussis toxin (200 ng) (Sigma), given subcutaneously at day of inoculation only.
Mice were kept at specific pathogen free (SPF) conditions and given water and food ad libitum. Mice were daily observed for clinical signs from day 10 until day 18-21 post inoculation.
Treatment with Test Compounds
Compounds were dissolved in 2-hydroxypropyl beta cyclodextrin (40% water solution). Treatment started at day 1 post inoculation. The compounds B10 and A10 (50 mg/kg) and vehicle were given orally by gavage every day until day 20 post inoculation.
Interpretation of Results: Calculation of the Incidence of Disease
The number of sick animals in each group was summed. The percentage of sick animals in each group was calculated.
Calculation of the Mean Maximal Score (MMS)
The maximal scores of each of the 15 mice in the group were summed.
The mean maximal score of the group were calculated as follows: Σ maximal score of each mouse/number of mice in the group. Calculation of the Mean Disease Duration (MDD)
The mean duration of disease expressed in days was calculated as follows: Σ duration of disease of each mouse/number of mice in the group. Calculation of the Group Mean Score (GMS)
The scores of each of the 15 mice in the group was summed and the mean score per day was calculated.
The group mean score was calculated as follows: Σ total score of each mouse per day/number of mice in the group.

[5] = dose 50 mg/kg/day, gavage x2/day, day 1 to 30

CC1(C)CC(O)CC(C)(C)N1[O] [Tempol, 4-hydroxy-2,2,6,6-tetramethylpiperidine-1-nitroxide]
HOCl (% lysis) (Human Red Blood Cells): 25%
Chemiluminescence (% inhib.) [1]: 57%
PMA (% cells activated) (Neutrophils): 70%
Neuroprotection MPP+ ([2]; at 0.5-1.0 mmol): Active at 0.5-1.0

C#CCN[C@@H]1CCc2ccc(NC(=O)OC3CC(C)(C)N([O])C(C)(C)C3)cc21 [Compound A11, (3-Prop-2-ynylamino-indan-5-yl) carbamic acid 2,2,6,6-tetramethyl-1-piperidinyloxy-4-yl ester HCl]
Neuroprotection MPP+ ([2]; at 10 μM): 43% at 10
effect on EAE ([3]; discussion of results): significant beneficial effect
onset of clinical signs of EAE ([3]; discussion of results): long delay
MDD (mean disease duration) [3, 5]: 8.0 ± 2.02 days
MDO (mean day of onset) [3, 5]: 17.14 ± 0.80
MMS (mean maximal score) [3, 5]: 2.93 ± 0.76
Mean score [3, 5]: 0.65 ± 0.09
Incid. ([3]; sick animals/animals in group, dose 50 mg/kg/day, gavage x2/day, day 1 to 30): 7/13

C#CCNC1CC(C)(C)N([O])C(C)(C)C1.Cl [Compound B10, 2,2,6,6-Tetramethyl-4-(prop-2-ynylamino)-piperidine nitroxide HCl]
HOCl (% lysis) (Human Red Blood Cells): 45%
Chemiluminescence (% inhib.) [1]: 42%
Neuroprotection MPP+ ([2]; at 1 & 10 μM): Active at 1 & 10
(# dead) [4]: 3
MDD (mean disease duration) [4]: 5.2 ± 0.97 days
MDO (mean day of onset) [4]: 13.6 ± 0.81
MMS (mean maximal score) [4]: 5.0 ± 0.77
Mean score [4]: 3.57 ± 0.29
Incid. [4]: 5/5

C#CCN[C@@H]1CCc2ccc(OC(=O)NC3CC(C)(C)N([O])C(C)(C)C3)cc21.Cl [Compound A10, (2,2,6,6-Tetramethyl-1-piperidinyloxy-4-yl)-carbamic acid 3(R)-prop-2-ynylamino-indan-5-yl ester HCl]
MDD (mean disease duration) [4]: 5.8 ± 0.86 days
MDO (mean day of onset) [4]: 11 ± 0.2
MMS (mean maximal score) [4]: 5.0 ± 0.8
Mean score [4]: 3.4 ± 0.3
Incid. [4]: 5/5

O=C1O[C@H]([C@@H](O)CO)C(O)=C1O [Ascorbic acid]
HOCl (% lysis) (Human Red Blood Cells): 100%
Chemiluminescence (% inhib.) [1]: 100%
PMA (% cells activated) (Neutrophils): 100%
